Measured values from the supplement of paper PMC10307832.

What was measured:
Experiment in all cases: relative viability (nuclei count vs DMSO), 5 days (fraction); higher = more cells survive
Crizotinib + Luminespib = compound: C[C@@H](Oc1cc(-c2cnn(C3CCNCC3)c2)cnc1N)c1c(Cl)ccc(F)c1Cl [Crizotinib] + CCNC(=O)c1noc(-c2cc(C(C)C)c(O)cc2O)c1-c1ccc(CN2CCOCC2)cc1 [Luminespib] (partner 0.01 µM)
Summary of the method: (§1)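 Values are medians from duplicate plates. Each reflects relative viability, defined as the nuclei count of treated wells over that of vehicle wells. Lung cancer cell lines in 1536-well plates were pin-tool dosed one day after seeding with one drug alone or with a fixed anchor-drug dose plus five library-drug doses (not always all listed) in √10 steps, then fixed, stained and imaged at 4× after 5 days.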

Carfilzomib + Foretinib = compound: CC(C)C[C@H](NC(=O)[C@H](CCc1ccccc1)NC(=O)CN1CCOCC1)C(=O)N[C@@H](Cc1ccccc1)C(=O)N[C@@H](CC(C)C)C(=O)[C@@]1(C)CO1 [Carfilzomib] + COc1cc2c(Oc3ccc(NC(=O)C4(C(=O)Nc5ccc(F)cc5)CC4)cc3F)ccnc2cc1OCCCN1CCOCC1 [Foretinib] (partner 0.25 µM)
Summary of the method: as §1

Crizotinib + Trametinib = compound: C[C@@H](Oc1cc(-c2cnn(C3CCNCC3)c2)cnc1N)c1c(Cl)ccc(F)c1Cl [Crizotinib] + CC(=O)Nc1cccc(-n2c(=O)n(C3CC3)c(=O)c3c(Nc4ccc(I)cc4F)n(C)c(=O)c(C)c32)c1 [Trametinib] (partner 0.02 µM)
Summary of the method: as §1

Crizotinib + AZD7762 = compound: C[C@@H](Oc1cc(-c2cnn(C3CCNCC3)c2)cnc1N)c1c(Cl)ccc(F)c1Cl [Crizotinib] + NC(=O)Nc1cc(-c2cccc(F)c2)sc1C(=O)N[C@H]1CCCNC1 [AZD7762] (partner 0.2 µM)
Summary of the method: as §1

Cell Line	relative viability (Crizotinib + Luminespib; first compound 0.01 µM)	relative viability (Crizotinib + Luminespib; first compound 0.03162 µM)	relative viability (Crizotinib + Luminespib; first compound 0.1 µM)	relative viability (Crizotinib + Luminespib; first compound 0.3162 µM)	relative viability (Crizotinib + Luminespib; first compound 1 µM)	relative viability (Carfilzomib + Foretinib; first compound 0.001 µM)	relative viability (Carfilzomib + Foretinib; first compound 0.003162 µM)	relative viability (Carfilzomib + Foretinib; first compound 0.01 µM)	relative viability (Carfilzomib + Foretinib; first compound 0.03162 µM)	relative viability (Carfilzomib + Foretinib; first compound 0.1 µM)	relative viability (Crizotinib + Trametinib; first compound 0.01 µM)	relative viability (Crizotinib + Trametinib; first compound 0.03162 µM)	relative viability (Crizotinib + Trametinib; first compound 0.1 µM)	relative viability (Crizotinib + Trametinib; first compound 0.3162 µM)	relative viability (Crizotinib + Trametinib; first compound 1 µM)	relative viability (Crizotinib + AZD7762; first compound 0.01 µM)	relative viability (Crizotinib + AZD7762; first compound 0.03162 µM)	relative viability (Crizotinib + AZD7762; first compound 0.1 µM)	relative viability (Crizotinib + AZD7762; first compound 0.3162 µM)	relative viability (Crizotinib + AZD7762; first compound 1 µM)
NCI-H1651	0.793	0.74	0.831	1.09	0.942	0.906	0.762	0.71	0.112	0.0981	0.802	0.832	0.822	0.792	0.803	0.438	0.472	0.409	0.483	0.463
NCI-H1666	0.864	1	1.09	0.991	0.999	0.988	0.979	1.07	0.928	0.45	0.838	0.865	0.866		0.902	0.78	0.899	0.828	0.825	
NCI-H1734	0.213	0.182	0.209		0.193	0.876	1.06	0.954	0.401	0.105	0.684	0.621	0.629		0.67	0.51	0.509	0.553		0.616
NCI-H1755	0.428	0.482	0.445	0.554	0.266	0.954	0.939	0.954	0.928	0.479	0.776	0.744	0.85	0.756	0.742	0.407	0.423	0.539	0.411	0.455
NCI-H1915	0.775	0.817	0.721		0.862	1.09	1.09	1.05	1.04	0.203	0.286	0.31	0.32	0.293	0.313	0.66	0.682	0.739	0.694	0.704
NCI-H1944	0.671	0.648	0.646	0.872	0.777	0.932	0.955	0.949	0.931	0.337	0.408	0.426	0.428	0.372	0.417	0.449	0.566	0.53	0.446	0.489
NCI-H1975	0.144	0.148	0.167	0.223	0.178		0.859	0.621	0.0974	0.104	0.338	0.326	0.363	0.373	0.402	0.641	0.784	0.771	0.684	0.636
NCI-H1993	0.905	0.889		0.852		0.798	0.865	0.81	0.778	0.444	0.631	0.454	0.506	1.07	0.46	0.702	0.75		0.379	0.527
NCI-H2085	0.551	0.394	0.431		0.428	0.909	0.925	0.829	0.249	0.226	0.515	0.485	0.691	0.479	0.529	0.961	1.01	0.986	0.737	1.02
NCI-H2087	0.18	0.181	0.168		0.134	1.03	1.15	0.693	0.0563	0.0605	0.145	0.206	0.214	0.23	0.172	1.39	1.49	1.24	1.24	1.48
NCI-H2126	0.717	0.886		0.861	0.916	1.2	1.3	1.2	1.12	0.48	0.511	0.539	0.557	0.55	0.591	0.928	1.09	1.02	0.903	1.04
NCI-H2170	0.914	0.806	0.649	0.606	0.511	1.05	1.02	1.06	1.06	0.397	0.859	0.993	0.869	0.928	0.909	0.761	0.894	0.835	0.852	0.858
NCI-H2342	0.635	0.931	0.674	0.705	0.815	1.04	1.06	1.08	0.988	0.621	0.818	0.896	0.78	0.868	0.829	0.465	0.504	0.483	0.441	0.575
NCI-H2347	0.212	0.458	0.482	0.681	0.404	0.958	0.909	1.43	0.698	0.181	0.265	0.274	0.292	0.321	0.272	0.773	0.663	0.772	0.582	0.884
NCI-H2405	0.629	0.706	0.697	0.785	0.806		1.06	1.07	1.07	0.305	0.537	0.636	0.657	0.619	0.711	0.632	0.695	0.684	0.763	0.755
NCI-H3122	0.119	0.0745	0.0793	0.0767	0.105	0.948	0.992	0.92	0.781	0.318	0.207	0.219	0.197	0.21	0.238	1.01	1.05	0.93	0.962	0.921
